ChEMBL document CHEMBL1138391, “Syntheses of hydroxy substituted 2-phenyl-naphthalenes as inhibitors of tyrosinase” (Bioorg Med Chem Lett, 2007)

What follows are molecules tested against T1, Tyrosinase (Agaricus bisporus, UniProt O42713).
T1 sequence (O42713 whole entry): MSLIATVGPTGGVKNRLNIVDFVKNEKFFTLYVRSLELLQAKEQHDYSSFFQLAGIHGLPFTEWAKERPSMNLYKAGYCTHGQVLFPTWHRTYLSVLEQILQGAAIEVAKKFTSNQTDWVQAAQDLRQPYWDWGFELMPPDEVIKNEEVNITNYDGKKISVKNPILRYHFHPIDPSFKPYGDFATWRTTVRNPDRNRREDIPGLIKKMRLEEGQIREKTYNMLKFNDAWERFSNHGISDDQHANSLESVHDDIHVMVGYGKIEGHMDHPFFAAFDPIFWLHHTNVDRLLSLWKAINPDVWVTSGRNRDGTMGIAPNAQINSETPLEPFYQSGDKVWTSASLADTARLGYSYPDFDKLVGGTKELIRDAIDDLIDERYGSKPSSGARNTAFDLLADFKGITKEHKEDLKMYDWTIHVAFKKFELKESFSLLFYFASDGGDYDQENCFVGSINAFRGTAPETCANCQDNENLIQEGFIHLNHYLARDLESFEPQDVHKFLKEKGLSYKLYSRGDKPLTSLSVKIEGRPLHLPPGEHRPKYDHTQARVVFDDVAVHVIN
Description: Inhibition of mushroom tyrosinase

Row | IC50 | Structure (SMILES)
1 | 6.4 µM | Oc1cccc(-c2ccc3cc(O)ccc3c2)c1
2 | 16.5 µM | Oc1cc(O)cc(-c2ccc3cc(O)ccc3c2)c1
3 | 2.95 µM | Oc1ccc2cc(-c3cc(O)c(O)c(O)c3)ccc2c1
4 | 0.034 µM | Oc1ccc(-c2ccc3cc(O)ccc3c2)c(O)c1
5 | 0.49 µM | Oc1cc(O)cc(-c2ccc3cc(O)cc(O)c3c2)c1
6 | 33.5 µM | Oc1ccc(O)cc1 [HYDROQUINONE]
7 | 55.6 µM | Oc1ccc(/C=C/c2cc(O)cc(O)c2)cc1 [RESVERATROL]
